Test results reported in patent US20150056195A1, “COMPOSITIONS AND METHODS FOR INIHIBITING TUMORIGENICITY OF SENESCENT CANCER CELLS INDUCED BY CHEMOTHERAPY” (INSERM (INSTITUT NATIONAL DE LA SANTE ET DE LA RECHERCHE …, priority 2013, published 2015).

How the values were obtained:
[1] = tested on: melanoma cell lines; test: Cell counting and cell death; type: cell-based, human; conditions: 501mel and other melanoma cells
[2] = tested on: melanoma cell lines; test: Western blot of MITF, ECAD, FN1, NANOG, OCT4; type: cell-based, human; conditions: three melanoma cell lines exposed 48 hrs to secretome of cells rendered senescent by the drug (temozolomide 900 nM, fotemustine 40 nM)
Experimental: (§1) Western blots were carried out as previously described^48. Briefly, cell lysates (30 μg) were separated by SDS-PAGE, transferred on to a PVDF membrane and then exposed to the appropriate primary and HRP-linked secondary antibodies. Proteins were visualized with the ECL system (Amersham). The western blots shown are representative of at least 3 independent experiments.

[3] = tested on: STAT3; test: Western blot of STAT3, ERK and AKT signaling; type: cell-based, human; conditions: 501mel; for AKT and ERK phosphorylation / STAT3 activation (tyr705-phosphorylation): IL6 20 ng/ml or CCL2 200 ng/ml; for STAT3 activation (tyr705-phosphorylation): time course
Experimental: as §1

[4] = tested on: 501mel melanoma cells; test: Xenograft tumor model in athymic nude mice; type: in vivo; conditions: cells exposed in vitro 48 hrs or transfected, then 4x10^6 cells/mouse subcutaneously
Experimental: Mice were randomly divided into 3 groups of 6 mice. 501mel melanoma cells were transfected with control (siC) or STAT3 (siSTAT3) siRNA and were exposed in vitro to the secretome of senescent melanoma cells (SSMC) or to recombinant CCL2 (200 ng/ml) or IL6 (20 ng/ml) for 48 hrs, washed twice with phosphate-buffered saline and then inoculated subcutaneously (4×10^6 cells/mouse) into 6-week-old female immune-deficient Athymic Nude FOXN1^nu mice (Harlan Laboratory). The growth tumor curves were determined by measuring the tumor volume using the equation V=(L×W2)/2. Mice were killed by CO2 inhalation and tumors were taken.

[5] = tested on: 501mel melanoma cells; test: qRT-PCR of mesenchymal, stemness and MITF transcripts; type: cell-based, human; conditions: IL6 20 ng/ml, mRNA and protein levels
Experimental: mRNA isolation was performed with Trizol (Invitrogen), according to standard procedure. QRT-PCR was carried out with SYBR® Green I and Multiscribe Reverse Transcriptase (Promega) and monitored by an ABI Prism 7900 Sequence Detection System (Applied Biosystems, Foster City, Calif.). Detection of SB34 gene was used to normalize the results. Primer sequences for each cDNA were designed using either Primer Express Software (Applied Biosystems) or qPrimer depot (http://primerdepot.nci.nih.gov) and are available upon request.

[6] = tested on: 501mel cells; test: Flow cytometry of MITF content (low-MITF population); type: cell-based, human; conditions: IL6 20 ng/ml, 48 hrs; control 2
[7] = tested on: 501mel cells; test: CFSE labeling, number of cell divisions by FACS; type: cell-based, human; conditions: IL6 20 ng/ml, 72 hrs; control 5.65
Experimental: For the in vitro CFSE assay, cells were labeled with 2 μmol/l of CFSE according to the manufacturer's protocol (Invitrogen), then plated and treated with the secretome of control (SCMC) or senescent melanoma cells (SSMC) or recombinant IL6 (20 ng/ml). Cells were detached and analyzed by flow cytometry using MACSQuant (Miltenyi biotech). Cells were exposed to control (Cont) or senescent secretome (SSMC). Seventy-two hours later, cells were detached in phosphate-buffered saline/EDTA 2 mM and stained with DAPI to exclude dead cells. Fluorescence was measured by using the FL1/FL2 channels of a MACSQuant. Data were analyzed with MACSQuant software (Miltenyi biotech).

## CN[C@@H]1C[C@H]2O[C@@](C)([C@@H]1OC)n1c3ccccc3c3c4c(c5c6ccccc6n2c5c31)C(=O)NC4 [staurosporine]
[1]
  cell death: positive control

## CCOP(=O)(OCC)C(C)NC(=O)N(CCCl)N=O (stereo not drawn) [fotemustine]
[2]
  E-Cadherin and MITF protein level: decrease
  expression of Fibronectin1: increased expression

## IL6: recombinant human IL6 from R&D Systems, used at 20 ng/ml
[3]; IL6 20 ng/ml
  time to rapid and robust STAT3 phosphorylation: ≤ 5 min
[3]
  AKT and ERK phosphorylation: no or very weak stimulation
  STAT3 activation (tyr705-phosphorylation): dramatic increase
[4]
  tumor formation of xenografted 501mel cells: gave rise to tumors
[5]
  NANOG and OCT4 expression: enhanced
  amount of MITF: reduced
[6]
  low-MITF population: 7%
[7]
  percentage of cells that underwent 0/1 division: 18.3%

## CCL2: recombinant human CCL2 from R&D Systems, used at 200 ng/ml
[3]; CCL2 200 ng/ml
  time of maximum STAT3 phosphorylation: 60 min
[3]
  AKT and ERK phosphorylation: no or very weak stimulation
  STAT3 activation (tyr705-phosphorylation): dramatic increase
[4]
  tumor formation of xenografted 501mel cells: gave rise to tumors
